Patent US11034718B2, “C-3 novel triterpenone with C-17 reverse amide derivatives as HIV inhibitors” (HETERO LABS LIMITED, priority 2015, dated 2021)
Where two headings read alike, the source gives them in different places.

How the values were obtained:
Type in all cases: cell-based
[1] = test system: HIV-1 strain 92HT599; test: Antiviral activity against HIV-1 strain 92HT599 in MT2 cells (p24 estimation); conditions: HIV-1 92HT599, ~96 hours
Method in brief: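 Percent inhibition versus vehicle controls came from p24 quantified in supernatant aliquots. These were taken after ~96 h incubation of compound (DMSO ≤1%) with MT2 cells infected at 10 TCID50/30,000 cells.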

[2] = test system: HIV-1 pNL4-3 WT; test: Antiviral activity against pNL4-3/WT strain in MT4 cells (p24 estimation); conditions: Human immunodeficiency virus 1, MT4, 96 h, read-out: pNL4-3 WT IC50
Description: (§1) Example 78: Evaluation of Compounds Antiviral Activity Against pNL4-3/WT & V7A Strains in MT4 Cells
(§2) MT4 cells were Transfected with HIV-1 Plasmid (pNL4-3-WT & V7A) (Cells were incubating with required number of TCID50 of HIV-1 for 1.5 h at 37° C.). After infection, the infected cells were plated at the concentration of 3×10^4 cells per well in 96 well plate. Test compound was added to the test plate in defined format with the final concentration of DMSO is not more than 1%. Incubation was carried out in CO2 incubator for 4 days for viral infection. At the end of incubation period an aliquot from each well was taken for p24 estimation. p24 estimation was carried out using Advance biosciences kit as per the procedure detailed by supplier.

[3] = test system: HIV-1 pNL4-3 V7A; test: Antiviral activity against pNL4-3/V7A strain in MT4 cells (p24 estimation); conditions: Human immunodeficiency virus 1, MT4, 96 h, read-out: pNL4-3 V7A IC50
Description: as §1, §2

[4] = Human immunodeficiency virus 1, 0% serum binding assay, read-out: IC50 0% serum
[5] = Human immunodeficiency virus 1, 40% serum binding assay, read-out: IC50 40% serum

| Structure (SMILES) | IC50 [1, 4] | IC50 [1, 5] | IC50 [2] | IC50 [3] |
| --- | --- | --- | --- | --- |
| CC(C)C1=C2[C@H]3CC[C@@H]4[C@@]5(C)CC[C@H](OC(=O)[C@H]6C[C@@H](C(=O)O)C6(C)C)C(C)(C)[C@@H]5CC[C@@]4(C)[C@]3(C)CC[C@@]2(NC(=O)C2(NC(=O)c3ccc(Cl)cc3)CC2)CC1=O [Example 37, (1R,3S)-3-((((3aR,5aR,5bR,7aR,9S,11aR,11bR,13aS)-3a-(1-(4-chlorobenzamido)cyclopropane-1-carboxamido)-1-isopropyl-5a,5b,8,8,11a-pentamethyl-2-oxo-3,3a,4,5,5a,5b,6,7,7a,8,9,10,11,11a,11b,12,13,13a-octadecahydro-2H-cyclopenta[a]chrysen-9-yl)oxy)carbonyl)-2,2-dimethylcyclobutane-1-carboxylic acid] | < 3 nM | < 50 nM | < 5 nM | < 10 nM |
| Cc1ccc(C(=O)NC2(C(=O)N[C@@]34CC[C@]5(C)[C@H](CC[C@@H]6[C@@]7(C)CC[C@H](OC(=O)[C@H]8C[C@@H](C(=O)O)C8(C)C)C(C)(C)[C@@H]7CC[C@]65C)C3=C(C(C)C)C(=O)C4)CC2)cn1 [Example 38, (1R,3S)-3-((((3aR,5aR,5bR,7aR,9S,11aR,11bR,13aS)-1-isopropyl-5a,5b,8,8,11a-pentamethyl-3a-(1-(6-methylnicotinamido)cyclopropane-1-carbox amido)-2-oxo-3,3a,4,5,5a,5b,6,7,7a,8,9,10,11,11a,11b,12,13,13a-octadecahydro-2H-cyclopenta[a]chrysen-9-yl)oxy)carbonyl)-2,2-dimethylcyclobutane-1-carboxylic acid] | < 3 nM | < 50 nM | < 5 nM | < 10 nM |
| CC(C)C1=C2[C@H]3CC[C@@H]4[C@@]5(C)CC[C@H](OC(=O)[C@H]6C[C@@H](C(=O)O)C6(C)C)C(C)(C)[C@@H]5CC[C@@]4(C)[C@]3(C)CC[C@@]2(NC(=O)C2(NC(=O)c3ccc(F)cc3)CC2)CC1=O [Example 39, (1R,3S)-3-((((3aR,5aR,5bR,7aR,9S,11aR,11bR,13aS)-3a-(1-(4-fluorobenzamido)cyclopropane-1-carboxamido)-1-isopropyl-5a,5b,8,8,11a-pentamethyl-2-oxo-3,3a,4,5,5a,5b,6,7,7a,8,9,10,11,11a,11b,12,13,13a-octadecahydro-2H-cyclopenta[a]chrysen-9-yl)oxy)carbonyl)-2,2-dimethylcyclobutane-1-carboxylic acid] | < 3 nM | < 50 nM | 5.01 to 10 nM | 10 to 50 nM |
| Cc1ccc(C(=O)NC2(C(=O)N[C@@]34CC[C@]5(C)[C@H](CC[C@@H]6[C@@]7(C)CC[C@H](OC(=O)[C@H]8C[C@@H](C(=O)O)C8(C)C)C(C)(C)[C@@H]7CC[C@]65C)C3=C(C(C)C)C(=O)C4)CC2)cc1 [Example 40, (1R,3S)-3-((((3aR,5aR,5bR,7aR,9S,11aR,11bR,13aS)-1-isopropyl-5a,5b,8,8,11a-pentamethyl-3a-(1-(4-methylbenzamido)cyclopropane-1-carboxamido)-2-oxo-3,3a,4,5,5a,5b,6,7,7a,8,9,10,11,11a,11b,12,13,13a-octadecahydro-2H-cyclopenta[a]chrysen-9-yl)oxy)carbonyl)-2,2-dimethylcyclobutane-1-carboxylic acid] | < 3 nM | < 50 nM | < 5 nM | < 10 nM |
| CC(C)C1=C2[C@H]3CC[C@@H]4[C@@]5(C)CC[C@H](OC(=O)[C@@H]6C[C@H](C(=O)O)C6(C)C)C(C)(C)[C@@H]5CC[C@@]4(C)[C@]3(C)CC[C@@]2(NC(=O)C2(NC(=O)c3ccc(Cl)cc3)CC2)CC1=O [Example 41, (1S,3R)-3-((((3aR,5aR,5bR,7aR,9S,11aR,11bR,13aS)-3a-(1-(4-chlorobenzamido)cyclopropane-1-carboxamido)-1-isopropyl-5a,5b,8,8,11a-pentamethyl-2-oxo-3,3a,4,5,5a,5b,6,7,7a,8,9,10,11,11a,11b,12,13,13a-octadecahydro-2H-cyclopenta[a]chrysen-9-yl)oxy)carbonyl)-2,2-dimethylcyclobutane-1-carboxylic acid] | < 3 nM | < 50 nM | > 10 nM | 10 to 50 nM |
| CC(C)C1=C2[C@H]3CC[C@@H]4[C@@]5(C)CC[C@H](OC(=O)[C@H]6C[C@@H](C(=O)O)C6(C)C)C(C)(C)[C@@H]5CC[C@@]4(C)[C@]3(C)CC[C@@]2(NC(=O)C2(NC(=O)c3ccc(Cl)cc3)CCC2)CC1=O [Example 42, (1R,3S)-3-((((3aR,5aR,5bR,7aR,9S,11aR,11bR,13aS)-3a-(1-(4-chlorobenzamido)cyclobutane-1-carboxamido)-1-isopropyl-5a,5b,8,8,11a-pentamethyl-2-oxo-3,3a,4,5,5a,5b,6,7,7a,8,9,10,11,11a,11b,12,13,13a-octadecahydro-2H-cyclopenta[a]chrysen-9-yl)oxy)carbonyl)-2,2-dimethylcyclobutane-1-carboxylic acid] | < 3 nM | < 50 nM | 5.01 to 10 nM | < 10 nM |
| CC(C)C1=C2[C@H]3CC[C@@H]4[C@@]5(C)CC[C@H](OC(=O)[C@H]6C[C@@H](C(=O)O)C6(C)C)C(C)(C)[C@@H]5CC[C@@]4(C)[C@]3(C)CC[C@@]2(NC(=O)C2(NC(=O)c3ncccn3)CCC2)CC1=O [Example 44, (1R,3S)-3-((((3aR,5aR,5bR,7aR,9S,11aR,11bR,13aS)-1-isopropyl-5a,5b,8,8,11a-pentamethyl-2-oxo-3a-(1-(pyrimidine-2-carboxamido)cyclobutane-1-carboxamido)-3,3a,4,5,5a,5b,6,7,7a,8,9,10,11,11a,11b,12,13,13a-octadecahydro-2H-cyclopenta[a]chrysen-9-yl)oxy)carbonyl)-2,2-dimethylcyclobutane-1-carboxylic acid] | < 3 nM | 50 to 200 nM | > 10 nM | > 50 nM |
| CC(C)C1=C2[C@H]3CC[C@@H]4[C@@]5(C)CC[C@H](OC(=O)[C@H]6C[C@@H](C(=O)O)C6(C)C)C(C)(C)[C@@H]5CC[C@@]4(C)[C@]3(C)CC[C@@]2(NC(=O)C2(NC(=O)c3cccnc3N3CCOCC3)CCC2)CC1=O [Example 45, (1R,3S)-3-((((3aR,5aR,5bR,7aR,9S,11aR,11bR,13aS)-1-isopropyl-5a,5b,8,8,11a-pentamethyl-3a-(1-(2-morpholinonicotinamido)cyclobutane-1-carboxamido)-2-oxo-3,3a,4,5,5a,5b,6,7,7a,8,9,10,11,11a,11b,12,13,13a-octadecahydro-2H-cyclopenta[a]chrysen-9-yl)oxy)carbonyl)-2,2-dimethylcyclobutane-1-carboxylic acid] | 3.01 to 10 nM | < 50 nM | < 5 nM | 10 to 50 nM |
| Cc1ccc(C(=O)NC2(C(=O)N[C@@]34CC[C@]5(C)[C@H](CC[C@@H]6[C@@]7(C)CC[C@H](OC(=O)[C@H]8C[C@@H](C(=O)O)C8(C)C)C(C)(C)[C@@H]7CC[C@]65C)C3=C(C(C)C)C(=O)C4)CCCC2)cn1 [Example 47, (1R,3S)-3-((((3aR,5aR,5bR,7aR,9S,11aR,11bR,13aS)-1-isopropyl-5a,5b,8,8,11a-pentamethyl-3a-(1-(6-methylnicotinamido)cyclopentane-1-carboxamido)-2-oxo-3,3a,4,5,5a,5b,6,7,7a,8,9,10,11,11a,11b,12,13,13a-octadecahydro-2H-cyclopenta[a]chrysen-9-yl)oxy)carbonyl)-2,2-dimethylcyclobutane-1-carboxylic acid] | < 3 nM | < 50 nM | < 5 nM | < 10 nM |
| CC(C)C1=C2[C@H]3CC[C@@H]4[C@@]5(C)CC[C@H](OC(=O)[C@H]6C[C@@H](C(=O)O)C6(C)C)C(C)(C)[C@@H]5CC[C@@]4(C)[C@]3(C)CC[C@@]2(NC(=O)C(C)(C)NC(=O)c2ccc(S(C)(=O)=O)cc2)CC1=O [Example 51, (1R,3S)-3-((((3aR,5aR,5bR,7aR,9S,11aR,11bR,13aS)-1-isopropyl-5a,5b,8,8,11a-pentamethyl-3a-(2-methyl-2-(4-(methylsulfonyl)benzamido)propanamido)-2-oxo-3,3a,4,5,5a,5b,6,7,7a,8,9,10,11,11a,11b,12,13,13a-octadecahydro-2H-cyclopenta[a]chrysen-9-yl)oxy)carbonyl)-2,2-dimethylcyclobutane-1-carboxylic acid] | < 3 nM | < 50 nM | 5.01 to 10 nM | > 50 nM |
| CC(C)C1=C2[C@H]3CC[C@@H]4[C@@]5(C)CC[C@H](OC(=O)[C@H]6C[C@@H](C(=O)O)C6(C)C)C(C)(C)[C@@H]5CC[C@@]4(C)[C@]3(C)CC[C@@]2(NC(=O)C(C)(C)NC(=O)Cc2ccc(Cl)cc2)CC1=O [Example 53, (1R,3S)-3-((((3aR,5aR,5bR,7aR,9S,11aR,11bR,13aS)-3a-(2-(2-(4-chlorophenyl)acetamido)-2-methylpropanamido)-1-isopropyl-5a,5b,8,8,11a-pentamethyl-2-oxo-3,3a,4,5,5a,5b,6,7,7a,8,9,10,11,11a,11b,12,13,13a-octadecahydro-2H-cyclopenta[a]chrysen-9-yl)oxy)carbonyl)-2,2-dimethylcyclobutane-1-carboxylic acid] | < 3 nM | < 50 nM | < 5 nM | < 10 nM |
